In ChEMBL document CHEMBL1909294, “Translating clinical findings into knowledge in drug safety evaluation--drug induced liver injury prediction system (DILIps)” (PLoS Comput Biol, 2011):

Columns and labels:
[1] = system: Hepatotoxicity;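 for HepSE bilirubinemia: bilirubinemia hepatic side effect score drawn from the DILIps training data, a prediction system for drug-induced liver injury; call rule not given here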;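 for HepSE cholecystitis: Cholecystitis-related hepatic side effect score drawn from the DILIps (drug-induced liver injury prediction) training data set; call rule not given here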;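 for HepSE cholelithiasis: hepatic side effect score for cholelithiasis, drawn from the DILIps training data for predicting drug-induced liver injury; call rule not given here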;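 for HepSE cirrhosis: cirrhosis hepatic side effect score taken from the DILIps (drug-induced liver injury prediction) training set; call rule not given here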;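 for HepSE elevated liver function tests: hepatic side effect score for raised liver function tests, as recorded in the DILIps training set used for predicting drug-induced liver injury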; for HepSE hepatic failure: call rule not given here;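 for HepSE hepatomegaly: hepatic side effect score for hepatomegaly, taken from the training set of the DILIps drug-induced liver injury prediction system; call rule not given here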
[2] = system: Hepatotoxicity; remark: listed apart in the source;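 for HepSE bilirubinemia: bilirubinemia hepatic side effect score drawn from the DILIps training data, a prediction system for drug-induced liver injury; call rule not given here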;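 for HepSE cholecystitis: Cholecystitis-related hepatic side effect score drawn from the DILIps (drug-induced liver injury prediction) training data set; call rule not given here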;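 for HepSE cholelithiasis: hepatic side effect score for cholelithiasis, drawn from the DILIps training data for predicting drug-induced liver injury; call rule not given here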;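 for HepSE cirrhosis: cirrhosis hepatic side effect score taken from the DILIps (drug-induced liver injury prediction) training set; call rule not given here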;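 for HepSE elevated liver function tests: hepatic side effect score for raised liver function tests, as recorded in the DILIps training set used for predicting drug-induced liver injury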; for HepSE hepatic failure: call rule not given here
[3] = system: Hepatotoxicity; remark: listed apart in the source;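 for HepSE bilirubinemia: bilirubinemia hepatic side effect score drawn from the DILIps training data, a prediction system for drug-induced liver injury; call rule not given here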;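 for HepSE cholecystitis: Cholecystitis-related hepatic side effect score drawn from the DILIps (drug-induced liver injury prediction) training data set; call rule not given here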;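 for HepSE cholelithiasis: hepatic side effect score for cholelithiasis, drawn from the DILIps training data for predicting drug-induced liver injury; call rule not given here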;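 for HepSE cirrhosis: cirrhosis hepatic side effect score taken from the DILIps (drug-induced liver injury prediction) training set; call rule not given here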;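 for HepSE elevated liver function tests: hepatic side effect score for raised liver function tests, as recorded in the DILIps training set used for predicting drug-induced liver injury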; for HepSE hepatic failure: call rule not given here
[4] = system: Hepatotoxicity; remark: listed apart in the source;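 for HepSE bilirubinemia: bilirubinemia hepatic side effect score drawn from the DILIps training data, a prediction system for drug-induced liver injury; call rule not given here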;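 for HepSE cholecystitis: Cholecystitis-related hepatic side effect score drawn from the DILIps (drug-induced liver injury prediction) training data set; call rule not given here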;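 for HepSE cholelithiasis: hepatic side effect score for cholelithiasis, drawn from the DILIps training data for predicting drug-induced liver injury; call rule not given here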;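 for HepSE cirrhosis: cirrhosis hepatic side effect score taken from the DILIps (drug-induced liver injury prediction) training set; call rule not given here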;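 for HepSE elevated liver function tests: hepatic side effect score for raised liver function tests, as recorded in the DILIps training set used for predicting drug-induced liver injury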; for HepSE hepatic failure: call rule not given here
[5] = system: Hepatotoxicity; remark: listed apart in the source; for HepSE hepatic failure: call rule not given here
[6] = system: Hepatotoxicity; remark: listed apart in the source; for HepSE hepatic failure: call rule not given here
[7] = system: Hepatotoxicity; remark: listed apart in the source
[8] = system: Hepatotoxicity; remark: listed apart in the source
[9] = system: Hepatotoxicity; remark: listed apart in the source
[10] = system: Hepatotoxicity; remark: listed apart in the source
[11] = system: Hepatotoxicity; remark: listed apart in the source
[12] = system: Hepatotoxicity; remark: listed apart in the source
[13] = system: Hepatotoxicity; remark: listed apart in the source
[14] = system: Hepatotoxicity; remark: listed apart in the source

| SMILES | HepSE_bilirubinemia [1] | HepSE_cholecystitis [2] | HepSE_cholelithiasis [3] | HepSE_cirrhosis [4] | HepSE_elevated liver function tests [5] | HepSE_hepatic failure [6] | HepSE_hepatic necrosis [7] | HepSE_hepatitis [8] | HepSE_hepatomegaly [9] | HepSE_jaundice [10] | HepSE_liver disease [11] | HepSE_liver fatty [12] | HepSE_liver function tests abnormal [13] | HepSE_Combined Scores [14] | other results |
| --- | --- | --- | --- | --- | --- | --- | --- | --- | --- | --- | --- | --- | --- | --- | --- |
| N=C(N)NCCN1CCCCCCC1 [GUANETHIDINE] | 0 | 0 | 0 | 0 | 0 | 0 | 0 | 0 | 0 | 0 | 0 | 0 | 0 | 0 | – |
| N=C(N)NC(=O)Cc1c(Cl)cccc1Cl [GUANFACINE] | 0 | 0 | 0 | 0 | 0 | 0 | 0 | 0 | 0 | 0 | 0 | 0 | 1 | 1 | – |
| CC1(C)O[C@@H]2C[C@H]3[C@@H]4CCC5=CC(=O)CC[C@]5(C)[C@@]4(F)[C@@H](O)C[C@]3(C)[C@]2(C(=O)CCl)O1 [HALCINONIDE] | 0 | 0 | 0 | 0 | 0 | 0 | 0 | 0 | 0 | 0 | 0 | 0 | 0 | 0 | – |
| CCC(=O)O[C@]1(C(=O)CCl)[C@@H](C)C[C@H]2[C@@H]3C[C@H](F)C4=CC(=O)C=C[C@]4(C)[C@@]3(F)[C@@H](O)C[C@@]21C [HALOBETASOL PROPIONATE] | 0 | 0 | 0 | 0 | 0 | 0 | 0 | 0 | 0 | 0 | 0 | 0 | 0 | 0 | – |
| CCCCN(CCCC)CCC(O)c1cc2c(Cl)cc(Cl)cc2c2cc(C(F)(F)F)ccc12 (configuration not stated) [HALOFANTRINE] | 0 | 0 | 0 | 0 | 0 | 0 | 0 | 0 | 0 | 0 | 0 | 0 | 0 | 0 | – |
| O=C(CCCN1CCC(O)(c2ccc(Cl)cc2)CC1)c1ccc(F)cc1 [HALOPERIDOL] | 0 | 0 | 0 | 0 | 0 | 0 | 0 | 0 | 0 | 1 | 0 | 0 | 0 | 1 | – |
| FC(F)(F)C(Cl)Br (configuration not stated) [HALOTHANE] | 0 | 0 | 0 | 0 | 0 | 0 | 1 | 0 | 0 | 0 | 0 | 0 | 0 | 1 | – |
| Oc1c(Cl)cc(Cl)c(Cl)c1Cc1c(O)c(Cl)cc(Cl)c1Cl [HEXACHLOROPHENE] | 0 | 0 | 0 | 0 | 0 | 0 | 0 | 0 | 0 | 0 | 0 | 0 | 0 | 0 | – |
| NNc1nncc2ccccc12 [HYDRALAZINE] | – | – | – | – | – | – | – | – | – | – | – | – | – | – | HepSE_bilirubinemia ([1]; Liver): 0; HepSE_cholecystitis ([2]; Liver): 0; HepSE_cholelithiasis ([3]; Liver): 0; HepSE_cirrhosis ([4]; Liver): 0; HepSE_elevated liver function tests ([5]; Liver): 0; HepSE_hepatic failure ([6]; Liver): 0; HepSE_hepatic necrosis ([7]; Liver): 0; HepSE_hepatitis ([8]; Liver): 1; HepSE_hepatomegaly ([9]; Liver): 0; HepSE_jaundice ([10]; Liver): 0; HepSE_liver disease ([11]; Liver): 0; HepSE_liver fatty ([12]; Liver): 0; HepSE_liver function tests abnormal ([13]; Liver): 0; HepSE_Combined Scores ([14]; Liver): 1 |
| NS(=O)(=O)c1cc2c(cc1Cl)NCNS2(=O)=O [HYDROCHLOROTHIAZIDE] | 0 | 0 | 0 | 0 | 0 | 0 | 0 | 0 | 0 | 1 | 0 | 0 | 0 | 1 | – |
| C[C@]12CCC(=O)C=C1CC[C@@H]1[C@@H]2[C@@H](O)C[C@@]2(C)[C@H]1CC[C@]2(O)C(=O)CO [HYDROCORTISONE] | 0 | 0 | 0 | 0 | 0 | 0 | 0 | 0 | 1 | 0 | 0 | 0 | 0 | 1 | – |
| NS(=O)(=O)c1cc2c(cc1C(F)(F)F)NCNS2(=O)=O [HYDROFLUMETHIAZIDE] | 0 | 0 | 0 | 0 | 0 | 0 | 0 | 0 | 0 | 1 | 0 | 0 | 0 | 1 | – |
| CN1CC[C@]23c4c5ccc(O)c4O[C@H]2C(=O)CC[C@H]3[C@H]1C5 [HYDROMORPHONE] | 0 | 1 | 0 | 0 | 0 | 1 | 0 | 0 | 1 | 1 | 0 | 0 | 1 | 5 | – |
| CCN(CCO)CCCC(C)Nc1ccnc2cc(Cl)ccc12 (configuration not stated) [HYDROXYCHLOROQUINE] | 0 | 0 | 0 | 0 | 0 | 1 | 0 | 0 | 0 | 0 | 0 | 0 | 0 | 1 | – |
| NC(=O)NO [HYDROXYUREA] | 0 | 0 | 0 | 0 | 0 | 0 | 0 | 0 | 0 | 0 | 0 | 0 | 0 | 0 | – |
| OCCOCCN1CCN(C(c2ccccc2)c2ccc(Cl)cc2)CC1 (configuration not stated) [HYDROXYZINE] | 0 | 0 | 0 | 0 | 0 | 0 | 0 | 0 | 0 | 0 | 0 | 0 | 0 | 0 | – |
| CCCCCN(C)CCC(O)(P(=O)(O)O)P(=O)(O)O [IBANDRONIC ACID] | 0 | 0 | 0 | 0 | 0 | 0 | 0 | 0 | 0 | 0 | 0 | 0 | 0 | 0 | – |
| CC(C)Cc1ccc(C(C)C(=O)O)cc1 (configuration not stated) [IBUPROFEN] | 0 | 0 | 0 | 0 | 0 | 1 | 1 | 1 | 0 | 1 | 0 | 0 | 1 | 5 | – |
